Reference: US11203598B2, “Compounds for repressing cancer cell growth” (Institute For Cancer Research, priority 2018, dated 2021)

Key:
Format in all cases: cell-based, human
HCT116 cells [1] = test: Cell Titer-Glo cell viability assay; conditions: 72 hours, dose dependent
Experimental: (§1) Cell lines at a concentration of 4×10^3 cells/well were seeded out on an opaque 96-well plate and treated with CB002 and Analog 11 in ranging doses starting from 200 μmol/L with DMSO controls. At 72 hours after treatment, cells were mixed with 30 μL Cell Titer-Glo reagent and after ten minutes of room temperature incubation were imaged using IVIS imaging system (Xenogen).

HCT116 p53-null cells [2] = test: Cell Titer-Glo cell viability assay; conditions: 72 hours, dose dependent
Experimental: as §1

SW480 cells = test: apoptosis assay, sub-G1 analysis (propidium iodide, flow cytometry); conditions: for sub-G1 fraction: dose dependent, over untreated controls
Experimental: Apoptotic cells were quantified by sub-G1 analysis. Cells were seeded at a density of 2.5×10^5 to 5×10^5 in a 6-well plate and treated for 48-72 hours. After treatment, adherent cells were trypsinized and collected along with floating cells, washed with PBS and fixed in 70% ethanol. Cells were then incubated in a Phosphate-citric acid buffer (0.2 M Na2HPO4+0.1 M Citric Acid, pH 7.8) at room temperature for 5 minutes, spun down and resuspended for staining with 50 μg/mL propidium iodide (PI) in the presence of 250 μg/mL pancreatic ribonuclease (RNase A). Sub-G1 analyses were performed using an Epics Elite Epics flow cytometer (Coulter-Beckman).
(§2) Cells were seeded out at 1×10^6 cells/well on six well plates and treated with CB002 and Analog 11 at ranging doses with DMSO controls. Cells were harvested after 72 hours of treatment, all cells including floating cells were fixed with ethanol and stained with Propidium Iodide and then analyzed using Epics Elite flow cytometer to measure the DNA content of the stained cells.

HCT116 cells [3] = test: FACS sub-G1 analysis; conditions: 72 hours, dose dependent, over untreated controls
Experimental: as §2

HCT116 p53-null cells [4] = test: FACS sub-G1 analysis; conditions: 72 hours, dose dependent, over untreated controls
Experimental: as §2

[5] = tested on: p53 pathway proteins in SW480 cells; test: Western blot of p53, p53 targets, apoptosis and autophagy markers; conditions: for Noxa expression: 24 hour, 100 μM CB002, 25 NM Analog 4, 100 μM Analog 11; for mutant p53 protein level: varying doses, anti-p53 (DO-1)
Experimental: (§3) After treatment, cells were harvested by trypsinization, washed with PBS, and lysed with RIPA buffer (Sigma-Aldrich) for 30 minutes to 1 hour at 4° C. Protein lysates were spun down and supernatant was collected. Protein quantification was performed using a Pierce™ BCA Protein Assay Kit (Thermo Fisher Scientific). 1×NuPAGE® LDS sample buffer (Thermo Fisher Scientific) and 2-Mercaptoethanol as the reducing agent (Sigma-Aldrich) were added to protein lysates, followed by boiling for 15 minutes at 95° C. Equal total protein amounts samples were loaded into NuPAGE™ Novex™ 4-12% Bis-Tris Protein Gels (1.5 mm, Thermo Fisher Scientific) and gel eletrophoresis was performed with NuPAGE™ MES SDS Running Buffer. Proteins were transferred onto an Immobilon-P membrane (PVDF, EMD Millipore) using a Bio-Rad system with a 10% Tris-Glycine and 10% methanol transfer buffer diluted in distilled and deionized water. After transfer, membranes were blocked with 10% milk in TBST solution and then incubated overnight with primary antibody, washed with TBST and incubated with secondary antibody for 1 hour. Incubations were performed in 5% milk in TBST solution. Signal was detected by using a chemiluminescent detection kit, followed by autoradiography. The following antibodies were used: p53 (DO-1, 1:1000, Santa Cruz), p73 (1:1000, Bethyl Laboratories), p21 and NOXA (1:250, EMD Millipore), DR5, FADD, cleaved caspase 3, cleaved caspase 8, cleaved PARP, and LC3B (1:1000, Cell Signaling), and β-actin (1:10000, Sigma).
(§4) Proteins were isolated using NP40 Lysis Buffer (20 mmol/L Tris-HCl (pH 7.4), 150 mmol/L NaCl, 5 mmol/L EDTA, 50 mmol/L NaF, 1 mmol/L glycerophosphate, 5 mmol/L Na4P2O7, 0.5% NP40, and complete protease inhibitor cocktail (Roche)) and electrophoresed through 4-12% SDS-PAGE followed by semi-dry transfer to PVDF membranes. The PVDF membranes were incubated with different antibodies including p21 (OP64-100UG, EMD Millipore (world wide web at emdmillipore.com/US/en/product/Antip21WAF1-(Ab-1)-Mouse-mAb-(EA10), EMD_BIO-OP64)), PUMA (12450S, Cell Signaling Technology, world wide web at cellsignal.com/products/primary-antibodies/puma-d30c10-rabbit-mab/12450), DR5 (3696S, Cell Signaling Technology, world wide web at cellsignal.com/products/primary-antibodies/dr5-antibody/3696?N=4294956287&Ntt=3696s&fromPage=plp& requestid=541668), p53(sc-126, Santa Cruz, world wide web at scbt.com/scbt/fr/product/p53-antibody-do-1), and RAN (610341, BD Transduction Laboratories, world wide web at bdbiosciences.com/us/reagents/research/antibodies-buffers/cell-biologyreagents/cell-biology-antibodies/purified-mouse-anti-ran-20ran/p/610341) in blocking buffer at 4° C. overnight. Bound antibody will be detected using IRDye secondary antibodies (LI-COR Biosciences,) in Odyssey blocking buffer for 1 hour then imaged using the ODYSSEY infrared imaging system.

[6] = tested on: p53 pathway proteins in p73 knockdown DLD-1 cells; test: Western blot of p53 targets; conditions: for p21 expression: 8 and 24 hours
Experimental: as §3, §4

[7] = tested on: p53 targets in HCT116 p53-null cells; test: Western blot of p53 targets
Experimental: as §3, §4

DLD-1 cells = test: colony formation assay; conditions: 50 μM for 24 hours, then 15 days drug-free
Experimental: Cells were seeded in 6-well plates at a density of 500 cells per well. Cells were treated with CB002 small molecule for 24 hours. Then, cells were cultured in drug-free complete media for 15 days. During the course of 15 days, the media was changed every 2-3 days. At the end of the two weeks, media was removed, wells were washed twice with Dulbecco's phosphate buffered saline (PBS) and the colonies were fixed and stained with 10% methanol and 0.25% crystal violet (Sigma-Aldrich) for 30 minutes. Wells were then carefully washed with distilled and deionized water and allowed to dry.
To further validate CB002 as a candidate therapeutic, its capability to affect cell growth was determined by analyzing cancer cell colony formation. Colony formation assays are widely used to determine the ability of a single cell to proliferate and form a colony in culture. This method offers the advantage of elucidating the sensitivity of cells towards cytotoxic agents in a long-term assay that may mimic the response seen in mouse models. […] Referring to FIG. 3, cells were treated with 50 μM of CB002 for a period of 24 hours, at which point media was replaced with complete media for a period of 15 days. Images are from one of three replicates.

Question: Which cell viability (HCT116 cells [1]) does the source give for `Cn1c(=O)c2c(nc(Nc3ccccc3)n2C)n(C)c1=O` [Analog 11, 8-anilino-1,3,7-trimethyl-3,7-dihydro-1Hpurine-2,6-dione] here?
Answer: reduced cell viability

Question: What about the cell viability (HCT116 p53-null cells [2]) of the same compound?
Answer: reduced cell viability

Question: What about the sub-G1 fraction (SW480 cells; 72 hours) of the same compound?
Answer: increased cells in sub-G1 fraction

Question: And the sub-G1 fraction (HCT116 cells [3])?
Answer: increased cells in sub-G1 fraction

Question: What about the sub-G1 fraction (HCT116 p53-null cells [4]) of the same compound?
Answer: increased cells in sub-G1 fraction

Question: What about the Noxa expression [5] of the same compound?
Answer: Induction of Noxa expression

Question: What about the “mutant p53 protein level” value ([5]; 24 hours) of the same compound?
Answer: decrease moderately

Question: And the p21 expression [6]?
Answer: absent

Question: What about the PUMA expression ([6]; 8 hours, over control) of the same compound?
Answer: increased expression

Question: And the PUMA expression ([6]; 24 hours)?
Answer: reduction in PUMA

Question: And the p21 protein level ([7]; 8 hours)?
Answer: increase moderately

Question: What about the PUMA protein level ([7]; 8 hours, 25 μmol/L and 50 μmol/L) of the same compound?
Answer: appeared to increase

Question: And the PUMA protein level ([7]; 24 hours)?
Answer: slight decrease

Question: What about the p21 protein level ([7]; 24 hours) of the same compound?
Answer: no consistent difference

Question: For `Cn1c(=O)c2[nH]c(Nc3ccccc3)nc2n(C)c1=O` [CB002, 8-anilino-1,3-dimethyl-3,7-dihydro-1H-purine-2,6-dione], which cell viability (HCT116 cells [1]) is on record?
Answer: reduced cell viability

Question: What about the cell viability (HCT116 p53-null cells [2]) of the same compound?
Answer: reduced cell viability

Question: And the colony formation (DLD-1 cells)?
Answer: significantly decreases colony formation

Question: What about the sub-G1 content (SW480 cells; 96 μM, 48 hours, parental SW480 (NOXA experiment), DMSO 4.5%) of the same compound?
Answer: 19%

Question: What about the sub-G1 population (SW480 cells; 96 μM, 48 hours, DMSO control 8.7%) of the same compound?
Answer: 32.6%

Question: What about the “increase of cells in sub-G1” value (SW480 cells; 200 μM, 72 hours) of the same compound?
Answer: 20%

Question: And the sub-G1 fraction (SW480 cells; 72 hours)?
Answer: increased cells in sub-G1 fraction

Question: What about the sub-G1 fraction (HCT116 cells [3]) of the same compound?
Answer: increased cells in sub-G1 fraction

Question: What about the sub-G1 fraction (HCT116 p53-null cells [4]) of the same compound?
Answer: increased cells in sub-G1 fraction

Question: What about the Noxa protein expression ([5]; 50 μM and 96 μM) of the same compound?
Answer: increased

Question: And the “expression of p21 and DR5” value ([5]; 12, 25, and 50 μM, 16 hours)?
Answer: increase the expression

Question: What about the “p53 protein expression level (mutant p53)” value ([5]; 12, 25, and 50 μM, 16 hours, versus DMSO) of the same compound?
Answer: constant p53 protein expression levels

Question: And the “cleaved PARP expression” value ([5]; 12, 25, and 50 μM, versus vehicle)?
Answer: observed to increase

Question: What about the “LC3B expression (autophagy marker)” value ([5]; 50 and 96 μM) of the same compound?
Answer: induce the expression of LC3B

Question: And the Noxa expression [5]?
Answer: Induction of Noxa expression

Question: What about the “mutant p53 protein level” value ([5]; 24 hours) of the same compound?
Answer: decrease significantly

Question: And the “cleaved caspase 3 and cleaved PARP expression” value ([5]; DR5 siRNA knockdown, 50 and 96 μM)?
Answer: continued to induce the expression

Question: What about the “cleaved PARP expression” value ([5]; FADD knockdown cells, 24 hours) of the same compound?
Answer: able to induce the expression of cleaved PARP

Question: And the LC3B expression ([5]; NOXA knock-down cells, 50 and 96 μM)?
Answer: failed to induce LC3B expression

Question: And the “c-caspase 3 and cleaved PARP expression” value ([5]; NOXA shRNA knockdown, 50 and 96 μM)?
Answer: did not induce the expression of apoptotic markers

Question: And the PARP cleavage ([5]; atg5 siRNA knockdown, 16 and 24 hours)?
Answer: complete loss of PARP cleavage

Question: What about the “cleaved caspase 8 and cleaved PARP” value ([5]; combination with 50 μM chloroquine, 24 hours) of the same compound?
Answer: reduced compared to CB002 alone

Question: And the “expression of p21, DR5 and PARP cleavage” value ([5]; p73 siRNA knockdown cells)?
Answer: increase the expression of p53 target genes p21 and DR5, and associated PARP cleavage

Question: And the p21 expression [6]?
Answer: absent

Question: What about the PUMA expression ([6]; 8 hours, over control) of the same compound?
Answer: increased expression

Question: And the PUMA expression ([6]; 24 hours)?
Answer: largely unchanged from control

Question: And the p21 protein level ([7]; 8 hours)?
Answer: increase moderately

Question: And the p21 protein level ([7]; 24 hours)?
Answer: no consistent difference
